Laboratory results published in patent US7923465B2, “Cannabinoid receptor ligands, pharmaceutical compositions containing them, and process for their preparation” (priority 2005, dated 2011).
Where two headings read alike, the source gives them in different places.

Key:
hCB1 [1] = target: T1, hCB1 (Homo sapiens, UniProt P21554); experiment: Agonism of CB1 receptors expressed in CHO cells, forskolin cAMP assay (Protocol IX.2); format: cell-based; design: expressed in transfected cells; host or cells: CHO (h-CB1/CHO, G418-selected); settings: CHO, at 10 uM, h-CB1/CHO cells, cAMP
Method: (§1) IX. Assay for Determining Agonist and Antagonist Activity to CB1 and CB2 Receptors
(§2) 2. Agonism of CB1/CB2 Receptors Expressed in CHO Cells
(§3) h-CB1/CHO or h-CB2/CHO cells were grown in HAM's F12 DMEM medium (Sigma) with 10% FBS (Hyclone), 1% penicillin-streptomycin solution and 400 μg/ml of G418 (Sigma). 5000 cells were seeded per well in a 96 well plate and incubated for 24 hours at 37° C. in 5% CO2. On the day of assay, cells were washed with warm Krebs Buffer containing 0.1% fatty acid free (FAF) BSA (Sigma) and re-suspended in the same buffer containing 1 mM IBMX. […] At the end of incubation, cells were lysed using lysis reagent from the cAMP estimation kit and cAMP was quantitated by chemiluminescence method described in the manufacturer's instructions (DiscoveRX). EC50 values were calculated from dose response curves by nonlinear regression analysis using PRISM software.

hCB1 [2] = target: T1, hCB1; experiment: Antagonism of CB1 receptors expressed in CHO cells, cAMP assay against CP 55,940 (Protocol IX.1); format: cell-based; design: expressed in transfected cells; host or cells: CHO (h-CB1/CHO, G418-selected); settings: at 10 uM, h-CB1/CHO cells, cAMP, vs 30 nM CP 55,940; read-out: hCB1 Antagonism
Method: as §1
(§4) 1. Antagonism of CB1/CB2 Receptors Expressed in CHO Cells.
as §3, with “warm Krebs buffer containing 0.1%” for “warm Krebs Buffer containing 0.1%”, “quantitated by the chemiluminescence method” for “quantitated by chemiluminescence method”

CB1 [3] = target: T2, CB1 (Rattus norvegicus, UniProt P20272); experiment: GTPγS binding assay, CB1 functional assay in rat cerebellar membrane (Protocol VIII); format: biochemical; design: 10 μg rat cerebellum membrane; from tissue; host or cells: rat cerebellum membrane, prepared in-house
In short: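 Rat cerebellar membranes (10 μg) incubated 1 h at 30 °C with 0.2 nM [35S]GTPγS, 50 μM GDP, and compound at 1 μM or 300 nM, alone or with 1 μM WIN 55,212-2, in Tris/MgCl2/EGTA/NaCl pH 7.4. Filter-bound radioactivity counted; percent stimulation calculated against basal specific binding (nonspecific defined by 10 μM GTPγS).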

CB1 [4] = target: T2, CB1; experiment: Rat CB1 receptor binding using brain membrane, [3H]SR141716A displacement (Protocol I); design: CB1 receptor present in a rat brain membrane preparation; from tissue; host or cells: rat brain membrane; inhibition: dose or concentration left out as unconfirmed; settings: 1 h; rat brain membrane, [3H]SR141716A displacement; read-out: % Displacement Protocol I
hCB2 [5] = target: T3, hCB2 (Homo sapiens, UniProt P34972); experiment: Agonism of CB2 receptors expressed in CHO cells, forskolin cAMP assay (Protocol IX.2); format: cell-based; design: expressed in transfected cells; host or cells: CHO (h-CB2/CHO, G418-selected); settings: cAMP; for hCB2 Agonism: at 10 uM
Method: as §1, §2
h-CB1/CHO or h-CB2/CHO cells were grown in HAM's F12 DMEM medium (Sigma) with 10% FBS (Hyclone), 1% penicillin-streptomycin solution and 400 μg/ml of G418 (Sigma). 5000 cells were seeded per well in a 96 well plate and incubated for 24 hours at 37° C. in 5% CO2. On the day of assay, cells were washed with warm Krebs Buffer containing 0.1% fatty acid free (FAF) BSA (Sigma) and re-suspended in the same buffer containing 1 mM IBMX. Test compound or CP 55,940 as a reference compound (30 nM final concentration for CB1 testing and 10 μM of the same for CB2 testing) diluted in FFB+IBMX+Krebs buffer was added to the cells followed by forskolin addition (10 uM final concentration) and incubated for 30 minutes at room temperature. At the end of incubation, cells were lysed using lysis reagent from the cAMP estimation kit and cAMP was quantitated by chemiluminescence method described in the manufacturer's instructions (DiscoveRX). EC50 values were calculated from dose response curves by nonlinear regression analysis using PRISM software.

hCB2 [6] = target: T3, hCB2; experiment: Antagonism of CB2 receptors expressed in CHO cells, cAMP assay against CP 55,940 (Protocol IX.1); format: cell-based; design: expressed in transfected cells; host or cells: CHO (h-CB2/CHO, G418-selected); settings: CHO, h-CB2/CHO cells, vs 10 nM CP 55,940
Method: as §1, §4
h-CB1/CHO or h-CB2/CHO cells were grown in HAM's F12 DMEM medium (Sigma) with 10% FBS (Hyclone), 1% penicillin-streptomycin solution and 400 μg/ml of G418 (Sigma). 5000 cells were seeded per well in a 96 well plate and incubated for 24 hours at 37° C. in 5% CO2. On the day of assay, cells were washed with warm Krebs buffer containing 0.1% fatty acid free (FAF) BSA (Sigma) and re-suspended in the same buffer containing 1 mM IBMX. Test antagonist or reference compound (AM 251 (1-(2,4-dichlorophenyl)-5-(4-iodophenyl)-4-methyl-N-(1-piperidyl)pyrazole-3-carboxamide) for CB1 and SR144528 for CB2) diluted in FAFBSA+IBMX+Krebs buffer was added to the cells and incubated for 10 minutes at room temperature. CP 55,940 (30 nM final concentration for CB1 testing and 10 nM of the same for CB2 testing) was added to cells followed by forskolin (10 μM final concentration) and incubated for 30 minutes at room temperature. At the end of incubation, cells were lysed using lysis reagent from the cAMP estimation kit and cAMP was quantitated by the chemiluminescence method described in the manufacturer's instructions (DiscoveRX). EC50 values were calculated from dose response curves by nonlinear regression analysis using PRISM software.

hCB2 [7] = target: T3, hCB2; experiment: In vitro binding assay using hCB2-CHO membranes, [3H]-CP-55,940 displacement (Protocol IV); design: expressed in transfected cells; host or cells: CHO (hCB2-CHO, generated in-house); settings: 1 h, read-out: % Displacement Protocol IV
In short: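 Displacement of [3H]-CP-55,940 (0.75 nM) from membranes of CHO cells expressing human CB2 (25-50 μg) was measured in Tris-BSA buffer pH 7.4 with 5 mM MgCl2, 1 mM EDTA, 0.1% BSA, 1 h at 30 °C. Test compounds were at 300 nM final; nonspecific binding defined with 0.5 μM CP-55,940. Values are % displacement of specific binding.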

[8] = hCB2 Agonism IC50, h-CB2/CHO cells
[9] = hCB2-CHO membranes, [3H]-CP-55,940 displacement
[10] = h-CB2/CHO cells, read-out: hCB2 Agonism IC50

T3 sequence (P34972 whole entry): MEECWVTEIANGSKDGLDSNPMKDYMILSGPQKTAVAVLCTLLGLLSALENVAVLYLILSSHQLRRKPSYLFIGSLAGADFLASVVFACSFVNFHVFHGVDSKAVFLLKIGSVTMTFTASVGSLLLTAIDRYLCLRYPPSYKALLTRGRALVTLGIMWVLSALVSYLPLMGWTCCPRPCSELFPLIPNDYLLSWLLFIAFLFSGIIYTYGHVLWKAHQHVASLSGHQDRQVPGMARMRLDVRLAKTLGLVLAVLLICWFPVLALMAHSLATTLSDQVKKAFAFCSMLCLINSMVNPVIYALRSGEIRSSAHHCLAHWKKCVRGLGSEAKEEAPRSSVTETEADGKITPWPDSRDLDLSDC
T1 sequence (P21554 whole entry): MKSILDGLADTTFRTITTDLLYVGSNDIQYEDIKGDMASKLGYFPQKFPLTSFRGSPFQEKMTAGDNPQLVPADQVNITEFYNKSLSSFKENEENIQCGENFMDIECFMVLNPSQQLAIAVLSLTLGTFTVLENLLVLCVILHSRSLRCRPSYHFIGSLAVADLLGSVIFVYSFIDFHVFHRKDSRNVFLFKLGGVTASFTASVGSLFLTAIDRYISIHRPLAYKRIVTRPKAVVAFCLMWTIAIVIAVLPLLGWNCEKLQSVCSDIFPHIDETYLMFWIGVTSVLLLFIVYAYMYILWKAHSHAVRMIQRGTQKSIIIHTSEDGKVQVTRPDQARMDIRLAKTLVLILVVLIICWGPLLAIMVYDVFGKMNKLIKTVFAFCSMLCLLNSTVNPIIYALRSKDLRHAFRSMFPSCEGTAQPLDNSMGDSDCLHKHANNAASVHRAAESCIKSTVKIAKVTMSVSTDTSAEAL
T2 sequence (P20272 whole entry): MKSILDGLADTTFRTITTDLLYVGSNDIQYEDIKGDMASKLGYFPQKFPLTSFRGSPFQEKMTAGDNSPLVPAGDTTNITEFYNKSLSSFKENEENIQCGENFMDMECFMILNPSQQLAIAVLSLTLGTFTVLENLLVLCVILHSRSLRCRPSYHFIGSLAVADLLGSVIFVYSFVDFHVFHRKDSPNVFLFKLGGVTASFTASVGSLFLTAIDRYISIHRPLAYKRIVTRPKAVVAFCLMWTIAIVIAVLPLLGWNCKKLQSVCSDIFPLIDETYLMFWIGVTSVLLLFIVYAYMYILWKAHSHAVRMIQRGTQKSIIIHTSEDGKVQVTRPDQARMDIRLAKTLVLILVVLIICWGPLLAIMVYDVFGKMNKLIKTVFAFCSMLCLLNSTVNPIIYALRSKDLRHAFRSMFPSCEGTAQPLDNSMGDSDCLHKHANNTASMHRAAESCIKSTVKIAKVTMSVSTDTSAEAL

Structure (SMILES)	melting point	inhibition at 10 µM (hCB1 [2])	inhibition (CB1 [4])	IC50 (hCB2 [5]; [8])	inhibition at 10 µM (hCB2 [6])	inhibition at 0.3 µM (hCB2 [7]; [9])	further results
O=C(NNc1ncccc1Cl)c1nn(-c2ccc(Cl)cc2)c2c1C1CC3CC(C1)CC2C3 [Example 134, N(7)-(3-Chloro-2-pyridylamino)-5-(4-chlorophenyl)-5,6-diazatetracyclo[7.3.1.1^3,11.0^4,8]tetradeca-4(8),6-diene-7-carboxamide]	200 to 203 °C	17.5%	89.6%	–	–	–	activation at 10 µM (hCB1 [1]): 75.6%; activation at 0.3 µM (CB1 [3]; 1 h, GTPγS binding over basal, rat cerebellar membrane, tested at 300 nM, read-out: Per Se % Stimulation): -6%; inhibition at 0.3 µM (CB1 [3]; GTPγS binding, tested at 300 nM in presence of 1 μM WIN 55,212-2, read-out: % Inhibition of WIN-55212-2 induced stimulation): 58.1%
O=C(NCc1ccccc1Cl)c1nn(-c2ccc(F)cc2F)c2c1C1CC3CC(C1)CC2C3 [Example 149, N(7)-(2-Chlorobenzyl)-5-(2,4-difluorophenyl)-5,6-diazatetracyclo[7.3.1.1^3,11.0^4,8]tetradeca-4(8),6-diene-7-carboxamide]	136 °C	16%	–	–	–	–	activation at 10 µM (hCB1 [1]): 79.9%
O=C(NNc1ccc(Cl)cc1Cl)c1nn(-c2ccc(F)cc2F)c2c1C1CC3CC(C1)CC2C3 [Example 150, N(7)-(2,4-Dichlorophenylamino)-5-(2,4-difluorophenyl)-5,6-diazatetracyclo[7.3.1.1^3,11.0^4,8]tetradeca-4(8),6-diene-7-carboxamide]	162 °C	42.9%	–	–	–	–	activation at 10 µM (hCB1 [1]): 61.1%
O=C(NC1CCCCC1)c1nn(-c2ccccc2Cl)c2c1C1CCC2C1 (stereo not drawn) [Example 206, N(3)-Cyclohexyl-1-(2-chlorophenyl)-4,5,6,7-tetrahydro-1H-4,7-methano-indazole-3-carboxamide]	171 °C	–	27.4%	10.5 nM	16%	71.9%	–
O=C(NCc1ccc(Cl)cc1Cl)c1nn(-c2ccc(Cl)cc2)c2c1C1CCC2C1 (stereo not drawn) [Example 223, N(3)-(2,4-Dichlorobenzyl)-1-(4-chlorophenyl)-4,5,6,7-tetrahydro-1H-4,7-methano-indazole-3-carboxamide]	108 to 111 °C	0%	52.1%	1.49 nM	24.4%	59.5%	–
O=C(NCC1CCCCC1)c1nn(-c2ccc(Cl)cc2Cl)c2c1C1CCC2C1 (stereo not drawn) [Example 238, N(3)-Cyclohexylmethyl-1-(2,4-dichlorophenyl)-4,5,6,7-tetrahydro-1H-4,7-methano-indazole-3-carboxamide]	111 to 113 °C	–	73.9%	–	24.5%	–	hCB2 Agonism (hCB2 [5]; h-CB2/CHO cells): 55.05% at; activation at 1 µM (CB1 [3]; 1 h, GTPγS binding over basal, rat cerebellar membrane, tested at 1 uM, read-out: Per Se % Stimulation): 0.4%; inhibition at 1 µM (CB1 [3]; GTPγS binding, tested at 1 uM in presence of 1 μM WIN 55,212-2, read-out: % Inhibition of WIN-55212-2 induced stimulation): 59.1%
O=C(NN(C1CCCCC1)C1CCCCC1)c1nn(-c2ccc(Cl)cc2Cl)c2c1C1CCC2C1 (stereo not drawn) [Example 239, N(3)-(N,N-Dicyclohexylamino)-1-(2,4-dichlorophenyl)-4,5,6,7-tetrahydro-1H-4,7-methano-indazole-3-carboxamide]	127 to 130 °C	–	23.5%	42.5 nM	64.1%	77.1%	–
O=C(NNc1ccc(F)cc1F)c1nn(-c2ccc(Cl)cc2Cl)c2c1C1CCC2C1 (stereo not drawn) [Example 265, N(3)-[(2,4-Difluorophenyl)amino]-1-(2,4-dichlorophenyl)-4,5,6,7-tetrahydro-1H-4,7-methano-indazole-3-carboxamide]	157 to 160 °C	–	31.6%	23.1 nM	27.2%	70.2%	–
CCCCCNC(=O)c1nn(-c2ccc(F)cc2F)c2c1C1CCC2C1 (stereo not drawn) [Example 306, N5-n-Pentyl-3-(2,4-difluorophenyl)-3,4-diazatricyclo[5.2.1.0^2,6]deca-2(6),4-diene-5-carboxamide]	75 to 78 °C	–	–	–	14.4%	–	IC50 (hCB2 [5]; [10]): 11.9 nM; inhibition at 0.3 µM (hCB2 [7]): 62.9%
O=C(NCc1ccc(Cl)cc1Cl)c1nn(-c2ccc(F)cc2F)c2c1C1CCC2C1 (stereo not drawn) [Example 307, N5-(2,4-Dichlorobenzyl)-3-(2,4-difluorophenyl)-3,4-diazatricyclo[5.2.1.0^2,6]deca-2(6),4-diene-5-carboxamide]	105 to 108 °C	–	–	–	21.6%	–	IC50 (hCB2 [5]; [10]): 0.81 nM; inhibition at 0.3 µM (hCB2 [7]): 70.3%
O=C(NC12CC3CC(CC(C3)C1)C2)c1nn(-c2ccc(Cl)cc2Cl)c2c1C1CCC2c2ccccc21 (stereo not drawn) [Example 506, N(12)-(Adamantan-1yl)-10-(2,4-dichlorophenyl)-10,11-diazatetracyclo[6.5.2.0^2,7.0^9,13]pentadeca-2,4,6,9(13),11-pentaene-12-carboxamide]	120 to 124 °C	–	–	–	80.2%	–	hCB2 Agonism (hCB2 [5]; h-CB2/CHO cells): 0% at 10 uM; inhibition at 0.3 µM (hCB2 [7]): 52.4%
